According to ChEMBL document CHEMBL3045439, “Isoforms of the heteropteran Nezara viridula ecdysone receptor: protein characterisation, RH5992 insecticide binding and homology modelling” (Pest Manag Sci, 2011):

Tests used:
Type in all cases: protein-complex assay
[1] = biological target: T1, Ecdysone receptor (Nezara viridula, UniProt E5L6Y0+E5L6Y1); assay: Displacement of [3H]PonA from recombinant Nezara viridula EcR11
T1 sequence (E5L6Y1 whole entry): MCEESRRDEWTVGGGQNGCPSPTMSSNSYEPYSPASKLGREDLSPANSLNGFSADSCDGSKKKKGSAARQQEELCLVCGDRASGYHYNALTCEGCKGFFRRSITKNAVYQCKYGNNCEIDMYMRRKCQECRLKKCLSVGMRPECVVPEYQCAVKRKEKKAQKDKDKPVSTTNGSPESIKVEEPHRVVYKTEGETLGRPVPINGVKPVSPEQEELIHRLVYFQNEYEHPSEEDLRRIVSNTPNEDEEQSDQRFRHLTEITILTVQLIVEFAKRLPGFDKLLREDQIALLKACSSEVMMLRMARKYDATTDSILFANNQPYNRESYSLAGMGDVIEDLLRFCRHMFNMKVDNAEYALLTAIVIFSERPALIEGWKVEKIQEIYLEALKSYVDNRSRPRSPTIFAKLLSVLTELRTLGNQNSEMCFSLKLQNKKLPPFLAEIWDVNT
T1 sequence (E5L6Y0 whole entry): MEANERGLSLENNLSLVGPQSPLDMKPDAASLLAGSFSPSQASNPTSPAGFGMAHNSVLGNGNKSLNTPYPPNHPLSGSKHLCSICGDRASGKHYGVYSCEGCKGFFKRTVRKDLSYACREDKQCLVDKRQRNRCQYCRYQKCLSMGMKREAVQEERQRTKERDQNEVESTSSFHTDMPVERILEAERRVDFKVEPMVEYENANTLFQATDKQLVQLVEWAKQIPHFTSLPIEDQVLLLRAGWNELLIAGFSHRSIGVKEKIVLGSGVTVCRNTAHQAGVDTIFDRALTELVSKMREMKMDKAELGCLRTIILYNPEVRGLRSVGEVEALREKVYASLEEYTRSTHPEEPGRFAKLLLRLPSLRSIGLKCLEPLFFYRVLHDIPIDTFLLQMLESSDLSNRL

[2] = biological target: T1, Ecdysone receptor; assay: Displacement of [3H]PonA from recombinant Nezara viridula EcR10
[3] = biological target: T2, Ecdysone receptor (Leptinotarsa decemlineata, UniProt Q4W6C8+Q4W6D0); assay: Binding affinity to Leptinotarsa decemlineata EcR
T2 sequence (Q4W6D0 whole entry): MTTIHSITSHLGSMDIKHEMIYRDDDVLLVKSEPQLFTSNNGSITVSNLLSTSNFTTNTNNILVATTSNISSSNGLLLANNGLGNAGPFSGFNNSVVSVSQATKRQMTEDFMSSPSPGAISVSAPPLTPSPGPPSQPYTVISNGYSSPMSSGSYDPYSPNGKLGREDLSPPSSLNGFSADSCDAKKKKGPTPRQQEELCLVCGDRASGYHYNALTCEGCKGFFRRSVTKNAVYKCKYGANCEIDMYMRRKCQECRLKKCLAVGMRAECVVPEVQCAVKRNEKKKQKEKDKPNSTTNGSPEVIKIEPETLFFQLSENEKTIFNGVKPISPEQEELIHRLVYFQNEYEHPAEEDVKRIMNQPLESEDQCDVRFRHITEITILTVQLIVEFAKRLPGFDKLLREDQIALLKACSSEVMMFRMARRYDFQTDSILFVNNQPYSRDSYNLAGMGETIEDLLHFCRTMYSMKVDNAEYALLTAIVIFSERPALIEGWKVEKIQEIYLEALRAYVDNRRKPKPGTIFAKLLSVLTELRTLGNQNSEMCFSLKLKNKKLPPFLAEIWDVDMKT
T2 sequence (Q4W6C8 whole entry): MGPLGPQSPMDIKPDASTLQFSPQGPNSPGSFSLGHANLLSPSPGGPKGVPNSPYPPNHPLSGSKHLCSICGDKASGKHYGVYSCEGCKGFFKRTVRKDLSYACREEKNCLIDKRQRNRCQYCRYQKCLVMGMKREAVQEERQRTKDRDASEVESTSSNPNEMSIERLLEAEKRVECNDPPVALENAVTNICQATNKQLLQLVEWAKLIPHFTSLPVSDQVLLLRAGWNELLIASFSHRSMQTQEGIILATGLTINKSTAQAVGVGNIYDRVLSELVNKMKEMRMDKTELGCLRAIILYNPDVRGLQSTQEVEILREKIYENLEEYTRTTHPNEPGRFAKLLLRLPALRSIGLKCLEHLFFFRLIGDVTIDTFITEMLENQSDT

[4] = biological target: T1, Ecdysone receptor; assay: Binding affinity to Nezara viridula EcR
[5] = biological target: T3, Ecdysone receptor (Drosophila melanogaster, UniProt P20153+P34021); assay: Binding affinity to Drosophila melanogaster EcR
T3 sequence (P34021 whole entry): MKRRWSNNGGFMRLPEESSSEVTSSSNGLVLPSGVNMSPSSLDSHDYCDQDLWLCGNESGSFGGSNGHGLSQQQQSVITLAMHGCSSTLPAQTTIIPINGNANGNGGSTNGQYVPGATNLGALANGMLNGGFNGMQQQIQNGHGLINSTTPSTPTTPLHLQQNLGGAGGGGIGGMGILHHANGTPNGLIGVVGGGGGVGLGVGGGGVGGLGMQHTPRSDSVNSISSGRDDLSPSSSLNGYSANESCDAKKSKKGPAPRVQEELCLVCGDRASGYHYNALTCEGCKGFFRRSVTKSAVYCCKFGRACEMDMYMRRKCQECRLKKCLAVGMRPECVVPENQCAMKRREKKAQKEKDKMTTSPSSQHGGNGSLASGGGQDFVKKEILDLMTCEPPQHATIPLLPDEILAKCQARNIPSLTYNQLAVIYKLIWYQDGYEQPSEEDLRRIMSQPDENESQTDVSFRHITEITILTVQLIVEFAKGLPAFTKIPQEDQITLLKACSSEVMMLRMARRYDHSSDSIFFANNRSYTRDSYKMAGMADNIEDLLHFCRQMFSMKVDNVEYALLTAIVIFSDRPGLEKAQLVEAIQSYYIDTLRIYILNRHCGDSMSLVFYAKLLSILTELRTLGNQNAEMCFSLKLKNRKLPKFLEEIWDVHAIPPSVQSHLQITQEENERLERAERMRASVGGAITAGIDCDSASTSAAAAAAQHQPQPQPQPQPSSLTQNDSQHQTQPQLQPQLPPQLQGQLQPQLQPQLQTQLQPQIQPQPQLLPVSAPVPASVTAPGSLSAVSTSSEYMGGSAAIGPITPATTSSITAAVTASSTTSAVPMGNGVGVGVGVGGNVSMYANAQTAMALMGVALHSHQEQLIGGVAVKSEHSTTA
T3 sequence (P20153 whole entry): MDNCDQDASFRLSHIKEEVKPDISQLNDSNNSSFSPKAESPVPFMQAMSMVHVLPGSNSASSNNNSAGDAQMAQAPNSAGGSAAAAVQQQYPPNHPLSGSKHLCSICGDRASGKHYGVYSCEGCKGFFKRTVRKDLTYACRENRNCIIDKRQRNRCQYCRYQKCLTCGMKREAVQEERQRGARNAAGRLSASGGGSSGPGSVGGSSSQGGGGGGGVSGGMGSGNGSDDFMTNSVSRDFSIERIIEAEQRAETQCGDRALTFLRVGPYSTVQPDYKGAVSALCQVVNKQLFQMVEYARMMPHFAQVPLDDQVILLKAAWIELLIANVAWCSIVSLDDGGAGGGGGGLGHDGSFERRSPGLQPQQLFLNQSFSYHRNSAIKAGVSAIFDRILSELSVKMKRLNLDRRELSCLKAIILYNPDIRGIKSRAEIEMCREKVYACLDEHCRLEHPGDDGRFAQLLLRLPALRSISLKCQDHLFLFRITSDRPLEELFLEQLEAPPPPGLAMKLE

[6] = biological target: T4, Ecdysone receptor (Spodoptera frugiperda, UniProt Q8MWR1+Q8MWR2); assay: Binding affinity to Spodoptera frugiperda (fall armyworm) EcR
T4 sequence (Q8MWR2 whole entry): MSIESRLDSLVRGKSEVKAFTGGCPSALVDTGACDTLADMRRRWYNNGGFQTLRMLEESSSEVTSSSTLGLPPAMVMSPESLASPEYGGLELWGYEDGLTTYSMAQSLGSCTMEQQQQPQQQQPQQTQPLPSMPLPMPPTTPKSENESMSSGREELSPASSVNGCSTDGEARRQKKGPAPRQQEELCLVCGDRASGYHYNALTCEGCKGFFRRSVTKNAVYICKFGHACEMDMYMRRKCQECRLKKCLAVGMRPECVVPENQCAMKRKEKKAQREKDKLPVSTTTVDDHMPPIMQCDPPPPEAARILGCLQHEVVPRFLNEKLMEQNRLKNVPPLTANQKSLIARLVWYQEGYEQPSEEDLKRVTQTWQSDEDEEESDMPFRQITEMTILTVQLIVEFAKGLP
T4 sequence (Q8MWR1 whole entry): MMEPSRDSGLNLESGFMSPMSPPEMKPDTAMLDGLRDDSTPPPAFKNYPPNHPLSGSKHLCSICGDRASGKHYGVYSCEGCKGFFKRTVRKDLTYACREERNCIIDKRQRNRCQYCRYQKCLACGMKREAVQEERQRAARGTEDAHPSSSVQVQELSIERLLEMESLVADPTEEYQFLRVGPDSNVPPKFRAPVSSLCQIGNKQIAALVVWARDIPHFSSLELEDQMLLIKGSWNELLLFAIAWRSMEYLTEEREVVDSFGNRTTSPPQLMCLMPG

| Compound | IC50 [1] [nM] | Ki [1] [nM] | IC50 [2] [nM] | Ki [2] [nM] | IC50 [3] [nM] | IC50 [4] [nM] | IC50 [5] [nM] | IC50 [6] [nM] |
| --- | --- | --- | --- | --- | --- | --- | --- | --- |
| C[C@H]([C@H](O)CCC(C)(C)O)[C@H]1CC[C@@]2(O)C3=CC(=O)[C@@H]4C[C@@H](O)[C@@H](O)C[C@]4(C)[C@H]3CC[C@]12C [ECDYSONE] | 60000 | 51100 | 60000 | 50400 |  |  |  |  |
| CC(CO)CC[C@@H](O)[C@](C)(O)[C@H]1CC[C@@]2(O)C3=CC(=O)[C@@H]4C[C@@H](O)[C@@H](O)C[C@]4(C)[C@H]3CC[C@]12C (stereo not given in full) [INOKOSTERONE] | 7000 | 6000 | 8000 | 6700 |  |  |  |  |
| C[C@H](C[C@@H](O)[C@](C)(O)[C@H]1CC[C@@]2(O)C3=CC(=O)[C@@H]4C[C@@H](O)[C@@H](O)C[C@]4(C)[C@H]3CC[C@]12C)C(C)(C)O [MAKISTERONE A] |  |  |  |  | 1740 | 1380 | 1380 | 389 |
| CC(C)CC[C@@H](O)[C@](C)(O)[C@H]1CC[C@@]2(O)C3=CC(=O)[C@]4(O)C[C@@H](O)[C@@H](O)C[C@]4(C)[C@H]3[C@H](O)C[C@]12C [MURISTERONE A] | 150 | 100 | 130 | 100 |  |  |  |  |
| CC(C)CC[C@@H](O)[C@](C)(O)[C@H]1CC[C@@]2(O)C3=CC(=O)[C@@H]4C[C@@H](O)[C@@H](O)C[C@]4(C)[C@H]3CC[C@]12C [PONASTERONE A] | 250 | 200 | 280 | 200 |  |  |  |  |
